We go through 10 molecules from ChEMBL document CHEMBL1201862, “PubChem BioAssay data set” (2004).

Structures are written as SMILES.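 48-hour exposure; five concentrations; linearly interpolated endpoints. The concentration for 50% growth inhibition is given as GI50.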 Active and inactive are the calls of the source. No stated cut-off is given here; in the data, active = GI50 up to about 1.1 µM and inactive = higher. Some results are limits rather than exact numbers.

What all share (assay): DTP human tumour cell line panel, 48 h
For experiment [1], the system named is ACHN.
Experiment [2] deals with CAKI-1.
Experiment [3] deals with COLO 205.
Experiment [4] has as its system DU-145.
Experiment [5] has as its system EKVX.
Experiment [6] deals with HCC 2998.
The test system of experiment [7] is HCT-15.
Experiment [8] concerns HT-29.
The test system of experiment [9] is K562.
For experiment [10], the system named is LOX IMVI.
The subject of experiment [11] is PC-3.
In experiment [12] the test system is RXF 393.
The test system of experiment [13] is SF-539.
Experiment [14] has as its system SK-MEL-2.
Experiment [15] deals with SK-OV-3.
Experiment [16] concerns SN12C.
Experiment [17] deals with SR.
The test system of experiment [18] is UACC-62.
Experiment [19] deals with UO-31.
The test system of experiment [20] is NCI-H460.

As to `CCOC(=O)C1=NN(c2ccc(C)cc2)C2(c3ccccc3)C=C(c3ccccc3)N(C)CCN12` (configuration not stated), the GI50 in experiment [1] is > 100 µM (inactive); in [2] it was > 100 µM (inactive); in experiment [3] it was > 100 µM (inactive); in experiment [4], > 100 µM (inactive); in experiment [5] it was > 100 µM (inactive); in [6], 82.4 µM (inactive). For the same molecule, the GI50 in experiment [7] is above 100 µM; in experiment [8] it was > 100 µM (inactive); in [9] it was 71 µM (inactive); in experiment [10] it was > 100 µM (inactive); in experiment [11], > 100 µM (inactive); in [12], > 100 µM (inactive). Besides, the GI50 is > 100 µM (inactive) in experiment [13]; > 100 µM (inactive) in experiment [14]; > 100 µM (inactive) in experiment [15]; > 100 µM (inactive) in experiment [16]; 35.2 µM (inactive) in experiment [17]; > 100 µM (inactive) in experiment [18]. Further, the GI50 in experiment [19] is > 100 µM (inactive).
`Clc1ccc(CCNC2(c3cc4ccccc4s3)CCCCC2)cc1Cl`: the GI50 in [1] is 26.2 µM (inactive); in experiment [2], 29.5 µM (inactive); in experiment [3], 17.8 µM (inactive); in experiment [4], 32.9 µM (inactive); in experiment [5] it was 26.1 µM (inactive); in [6], 7.74 µM (inactive). For the same molecule, the GI50 in experiment [7] was 15.3 µM; in [8], 10 µM (inactive); in [9], 15.5 µM (inactive); in experiment [10], 18.5 µM (inactive); in [20], 14.8 µM (inactive); in [11], 43.2 µM (inactive). Besides, the GI50 was 17.7 µM (inactive) in [12]; 16.9 µM (inactive) in [13]; 19 µM (inactive) in experiment [14]; 29.6 µM (inactive) in experiment [15]; 33.7 µM (inactive) in [16]; 11.9 µM (inactive) in [17]. The GI50 in experiment [18] is 17.7 µM (inactive); in experiment [19], 16.6 µM (inactive).
Regarding `COc1ccc(/N=C/C=C/Nc2ccc(OC)cc2)cc1`, the GI50 was 15.6 µM (inactive) in experiment [1]; 3.78 µM (inactive) in experiment [2]; 3.99 µM (inactive) in experiment [3]; 18.7 µM (inactive) in experiment [4]; 15.7 µM (inactive) in experiment [5]; 8.45 µM (inactive) in experiment [6]. Besides, the GI50 in experiment [7] was 4.65 µM; in experiment [8] it was 2.88 µM (inactive); in experiment [9], 8.13 µM (inactive); in [10], 2.44 µM (inactive); in experiment [20], 13.3 µM (inactive); in experiment [11], 12 µM (inactive). The GI50 in [12] is 7.67 µM (inactive); in experiment [13] it was 9.64 µM (inactive); in experiment [14], 16.4 µM (inactive); in experiment [15], 19.7 µM (inactive); in experiment [16], 3.9 µM (inactive); in experiment [17] it was 3.85 µM (inactive). The GI50 in experiment [18] is 13.7 µM (inactive); in experiment [19] it was 5.64 µM (inactive).
Regarding `COCOc1cc(OC)ccc1C/C=N/O`, the GI50 in experiment [1], in experiment [2], in experiment [3], in [4], in experiment [5] and in [6] was > 100 µM (inactive) throughout. Besides, the GI50 in [7] is above 100 µM; in experiment [8], > 100 µM (inactive); in [9], > 100 µM (inactive); in experiment [10] it was > 100 µM (inactive); in [20], > 100 µM (inactive); in experiment [11], > 100 µM (inactive). Moreover, the GI50 in experiment [12], in [13], in experiment [14], in experiment [15], in experiment [16] and in experiment [17] was > 100 µM (inactive) each time. Besides, the GI50 in [18] and in [19] was > 100 µM (inactive) in each case.
Consider `c1ccc2/c3[nH]/c(c2c1)=N\c1ccc(cc1)-c1nc2ccc(cc2o1)/N=c1/[nH]/c(c2ccccc12)=N/c1ccc2nc(oc2c1)-c1ccc(cc1)\N=3`, for which the GI50 in experiment [1] was 16.6 µM (inactive); in experiment [2], 35.4 µM (inactive); in experiment [3] it was 11.6 µM (inactive); in experiment [4] it was 23.2 µM (inactive); in experiment [5], 45.6 µM (inactive); in experiment [6], 17.1 µM (inactive). Besides, the 50% growth inhibitory concentration (GI50) was 3.1 µM in experiment [7]; 33.4 µM (inactive) in [8]; 15.8 µM (inactive) in experiment [9]; 29.4 µM (inactive) in experiment [10]; 7.38 µM (inactive) in experiment [20]; 29.9 µM (inactive) in experiment [11]. The GI50 in [12] is 43.2 µM (inactive); in experiment [13], 77.1 µM (inactive); in [14] it was 38.8 µM (inactive); in [15] it was 72.8 µM (inactive); in experiment [16] it was 20.9 µM (inactive); in [17] it was 20.3 µM (inactive). Moreover, the GI50 in [18] is 51.4 µM (inactive); in experiment [19], 15.9 µM (inactive).
As for `CCN(CC)CCCNc1c2cc(OC)ccc2nc2cccc([N+](=O)[O-])c12`, the GI50 in experiment [1] is 0.0407 µM (active); in experiment [2], 0.21 µM (active); in experiment [3] it was 0.0238 µM (active); in [4], 0.0551 µM (active); in [5], 0.163 µM (active); in [6] it was 0.0655 µM (active). Further, the GI50 in [7] was 0.0676 µM; in [8], 0.0456 µM (active); in experiment [9] it was 0.00643 µM (active); in experiment [10] it was 0.024 µM (active); in [20], 0.0184 µM (active); in experiment [11], 0.0543 µM (active). Also, the GI50 in experiment [12] is 0.0557 µM (active); in experiment [13], 0.141 µM (active); in [14], 0.101 µM (active); in experiment [15], 0.246 µM (active); in [16], 0.11 µM (active); in experiment [17], 0.00612 µM (active). Besides, the GI50 in [18] was 0.166 µM (active); in experiment [19], 0.0402 µM (active).
As for `Cc1nnc(CC#N)n1NC(=O)CC#N`, the GI50 in [1], in experiment [2], in experiment [3], in [4], in experiment [5] and in experiment [6] was > 100 µM (inactive) in each case. Moreover, the concentration for 50% growth inhibition (GI50) in experiment [7] was above 100 µM; in experiment [8] it was > 100 µM (inactive); in experiment [9], > 100 µM (inactive); in experiment [10], > 100 µM (inactive); in experiment [20], > 100 µM (inactive); in [11], > 100 µM (inactive). Also, the GI50 in experiment [12], in [13], in experiment [14], in experiment [15], in [16] and in [17] was > 100 µM (inactive) each time. For the same molecule, the GI50 in [18] and in experiment [19] was > 100 µM (inactive) each time.
With `O=C(NCCCCCCNC(=O)n1cc(F)c(=O)[nH]c1=O)NCCCOCCOCCOCCOCCOCCOCCOCCOCCOCCOCCOCCOCCOCCOCCOCCOCCOCCOCCOCCOCCOCCCNC(=O)C(O)C(O)C(O)C(O)CO` (configuration not stated), the GI50 in experiment [1] is 26.7 µM (inactive); in experiment [2], 22.5 µM (inactive); in [3] it was 23.8 µM (inactive); in [4] it was 25.4 µM (inactive); in experiment [5], 85.9 µM (inactive); in [6] it was 5.66 µM (inactive). Besides, the GI50 in [7] is 21 µM; in [8], 17.5 µM (inactive); in experiment [9], 34.8 µM (inactive); in [10], 16.3 µM (inactive); in [20], 5.37 µM (inactive); in experiment [11], 64.3 µM (inactive). Moreover, the GI50 in [12] is 43.2 µM (inactive); in experiment [13], 1.81 µM (inactive); in experiment [14], > 100 µM (inactive); in experiment [15] it was > 100 µM (inactive); in [16], 80 µM (inactive); in [17], 65.9 µM (inactive). For the same molecule, the GI50 in experiment [18] is 28.8 µM (inactive); in [19] it was 20.9 µM (inactive).
Take `Oc1cc(O)c2c(c1)OC(c1ccc(O)c(O)c1)C(OC1(c3cc(O)c(O)c(O)c3)Oc3cc(O)cc(O)c3C(O)C1O)C2` (configuration not stated): the GI50 is 38.4 µM (inactive) in experiment [1]; 29.8 µM (inactive) in experiment [2]; 31.8 µM (inactive) in [3]; > 49 µM (inactive) in experiment [4]; 15.6 µM (inactive) in experiment [5]; 62.8 µM (inactive) in experiment [6]. Further, the GI50 in experiment [7] was 36 µM; in [8] it was 18.1 µM (inactive); in [9], 21.1 µM (inactive); in [10], 18.3 µM (inactive); in experiment [20], 18.4 µM (inactive); in experiment [11] it was 49.7 µM (inactive). The GI50 in experiment [12] was 73.5 µM (inactive); in experiment [13], 32.1 µM (inactive); in experiment [14], 24.5 µM (inactive); in [15], > 65.5 µM (inactive); in [16], 20.8 µM (inactive); in [17], 29.2 µM (inactive). The GI50 in experiment [18] is 37.6 µM (inactive); in experiment [19], 18 µM (inactive).
For `CC(=O)O[C@H]1CCC2[C@@H]3CCC4Nc5oncc5C[C@]4(C)C3CC[C@@]21C` (some centres not stated), the GI50 in [1] was > 10 µM (inactive); in [2], > 10 µM (inactive); in experiment [3], > 10 µM (inactive); in experiment [4] it was > 10 µM (inactive); in experiment [6], > 10 µM (inactive); in experiment [7], above 10 µM. Also, the GI50 in [8], in experiment [9], in experiment [10], in experiment [20], in [11] and in [12] was > 10 µM (inactive) in each case. Moreover, the GI50 in experiment [13] was 3.94 µM (inactive); in experiment [14], > 10 µM (inactive); in experiment [15], > 10 µM (inactive); in experiment [16] it was > 10 µM (inactive); in experiment [17], > 10 µM (inactive); in experiment [19], > 10 µM (inactive).
